From PubChem BioAssay AID1035470 (Broad Institute, 2014)
Records with an inconclusive call do not appear. Activity calls are given as the source filed them.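 Rule for the calls: active = compound lowering the normal-ribosome reporter at least twice as much as the humanized-ribosome reporter, growth loss under a set limit; inconclusive = no clear call, values can overlap the other calls; inactive = the rest.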

System: E. coli WT-GFP vs G2058-humanized RFP, fluorescence, 24 h
Assay: growth inhibition of wild-type GFP E. coli versus G2058-humanized strain, dose response, G2058 mutant RFP vs wild-type GFP, cherry-pick, two tests (AID 1035470)
[1] = measured here: G2058 humanized mutant RFP growth
[2] = E. coli WT-GFP vs G2058-humanized RFP mixed culture, total growth OD600, 24 h

How did the AC50 turn out when COc1ccc(C(=O)CSc2nc3ccccc3n2CC(=O)c2ccccc2)cc1 was run?
Its AC50 is > 100 µM (inactive).

And the AC50 [1]?
Its AC50 is greater than 100 µM.

For O=C(O)c1ccccc1NC(=O)C(c1ccccc1)c1ccccc1, which AC50 is on record?
Its AC50 is > 100 µM (inactive).

How did the AC50 [1] turn out when O=C(c1ccc(Cl)cc1)C1CCCN(Cc2cccc3cnccc23)C1 (stereo not drawn) was run?
Its AC50 is greater than 100 µM.

With CCc1nn2cc(C(=O)c3cc(Cl)ccc3O)cnc2c1-c1ccc(F)cc1 as the molecule, how does the AC50 read?
Its AC50 is > 100 µM (inactive).

COc1cccc(OC)c1CNC(=O)CCSCc1ccccc1F was tested. Which AC50 did it give?
The AC50 was > 100 µM (inactive).

And the AC50 [2]?
Its AC50 is greater than 100 µM.

COc1cc(C2CC(=O)Oc3cc(C)cc(C)c32)cc(OC)c1OC (stereo not drawn) was tested. Which AC50 did it give?
Its AC50 is > 100 µM (inactive).

How did the AC50 turn out when O=C(CCCn1c(=S)[nH]c2ccsc2c1=O)Nc1ccc2c(c1)OCCO2 was run?
Its AC50 is > 100 µM (inactive).

How did the AC50 turn out when O=C1c2ccccc2C(c2nnnn2C2CCCCC2)N1CCc1ccc(O)cc1 (stereo not drawn) was run?
The AC50 was > 100 µM (inactive).

For COc1cc2[nH]c(=S)nc(NCCc3ccc(C)cc3)c2cc1OC, which AC50 is on record?
Its AC50 is > 100 µM (inactive).

For CS(=O)(=O)NCCSc1cc(C(F)(F)F)nc2ccccc12, which AC50 is on record?
The AC50 was > 100 µM (inactive).

CN(C)CCCNc1ccc(-c2cc(Nc3cccc(Cl)c3)ncn2)cn1 was tested. Which AC50 did it give?
Its AC50 is > 100 µM (inactive).

Which AC50 does the source give for O=C(CSCc1c(Cl)cccc1Cl)NCc1ccccn1 here?
The AC50 was > 100 µM (inactive).

How did the AC50 turn out when COc1cc(OC)cc(C(=O)Nc2ccc(S(=O)(=O)Nc3cnc4ccccc4n3)cc2)c1 was run?
The AC50 was > 100 µM (inactive).

For Cc1cccc(-c2ccc([C@H]3[C@@H](CO)N4CCCCN(S(=O)(=O)c5ccccc5C)C[C@H]34)cc2)c1, which AC50 [2] is on record?
Its AC50 is greater than 100 µM.

With CC(=O)NCCOc1nc(N2CCCCC2)nc(N2CCCCC2)n1 as the molecule, how does the AC50 read?
Its AC50 is > 100 µM (inactive).

Cc1nc(SCC(=O)Nc2ccc3c(c2)OCCO3)nc(C)c1C was tested. Which AC50 did it give?
Its AC50 is > 100 µM (inactive).

What about the AC50 [2] of the same molecule?
Its AC50 is 46.5 µM.

For CCn1ncc(Br)c1C(=O)Nc1ccc2c(c1)OCCO2, which AC50 is on record?
The AC50 was > 100 µM (inactive).

Which AC50 does the source give for N#Cc1c(N)nc(SCc2ccccc2)c(C#N)c1-c1ccco1 here?
Its AC50 is > 100 µM (inactive).

With CN1CCN(c2nc(Nc3ccc(O)cc3)nc3ccccc23)CC1 as the molecule, how does the AC50 read?
Its AC50 is > 100 µM (inactive).

And the AC50 [2]?
Its AC50 is greater than 100 µM.

Which results are given for C[C@H]1CN([C@@H](C)CO)C(=O)CCCn2nncc2CO[C@@H]1CN(C)Cc1ccccc1C(F)(F)F?
AC50 [2]: > 100 µM; AC50 [1]: 6.94 µM

Which AC50 does the source give for COC(=O)c1ccccc1NC(=O)c1ccc2c(c1)CC(C)O2 (stereo not drawn) here?
The AC50 was > 100 µM (inactive).

And the AC50 [2]?
The AC50 was 52.3 µM.

How did the AC50 turn out when CCCN(Cc1ccco1)S(=O)(=O)c1ccc(OC)c(OC)c1 was run?
The AC50 was > 100 µM (inactive).

And the AC50 [2]?
The AC50 was greater than 100 µM.

And the AC50 [1]?
Its AC50 is greater than 100 µM.

How did the AC50 turn out when COc1cccc(-c2ccc(SCc3ccccn3)nn2)c1 was run?
Its AC50 is > 100 µM (inactive).

How did the AC50 [1] turn out when COc1ccccc1NC(=O)COC(=O)Cc1c[nH]c2ccccc12 was run?
The AC50 was greater than 100 µM.

Which AC50 does the source give for CCc1cc2cc(OC)ccc2nc1SCC(=O)Nc1cc(OC)c(OC)cc1C(=O)O here?
Its AC50 is > 100 µM (inactive).

What about the AC50 [2] of the same molecule?
The AC50 was greater than 100 µM.

Cc1ccc(Nc2cc(C(=O)NCCCN3CCOCC3)c3ccccc3n2)cc1C was tested. Which AC50 did it give?
Its AC50 is > 100 µM (inactive).

And the AC50 [2]?
Its AC50 is greater than 100 µM.

For CCc1nnc(NS(=O)(=O)c2ccc(NC(=O)c3cccc(Cl)c3)cc2)s1, which AC50 is on record?
Its AC50 is > 100 µM (inactive).

What about the AC50 [2] of the same molecule?
Its AC50 is greater than 100 µM.

What about the AC50 [1] of the same molecule?
Its AC50 is greater than 100 µM.

How did the AC50 turn out when Cc1cc(C(=O)Nc2ccc3ccccc3c2)c(C)o1 was run?
Its AC50 is > 100 µM (inactive).

And the AC50 [2]?
Its AC50 is greater than 100 µM.

CCn1nc(C(=O)OCc2cccc(S(=O)(=O)N(C)C)c2)c2ccccc2c1=O was tested. Which AC50 did it give?
The AC50 was > 100 µM (inactive).

O=C(O)c1nn2c(C(F)(F)F)cc(-c3cccs3)nc2c1Cl was tested. Which AC50 did it give?
The AC50 was > 100 µM (inactive).

Which results are given for COc1ccc(NC(=O)CSc2nnc(Cc3ccccc3)o2)c(OC)c1?
AC50: > 100 µM (inactive); AC50 [2]: > 100 µM

With O=C(Nc1cc(S(=O)(=O)N2CCCCC2)ccc1N1CCCCC1)C1CC1 as the molecule, how does the AC50 read?
The AC50 was > 100 µM (inactive).

CCCCn1c(=O)[nH]c(=O)c2c1nc(-c1ccccc1F)n2Cc1ccccc1 was tested. Which AC50 did it give?
Its AC50 is > 100 µM (inactive).

What about the AC50 [2] of the same molecule?
Its AC50 is greater than 100 µM.

Which AC50 does the source give for COc1ccc(C2CC(=O)Oc3cc(C)cc(C)c32)cc1 (stereo not drawn) here?
Its AC50 is > 100 µM (inactive).

For CC(C)(C)NC(=O)C(c1ccncc1)N(Cc1ccc(F)cc1)C(=O)c1ccc(-c2ccccc2)[nH]1 (stereo not drawn), which AC50 [2] is on record?
Its AC50 is greater than 100 µM.

With CN(Cc1nnc(-c2ccc(F)cc2)o1)c1ccccc1 as the molecule, how does the AC50 read?
The AC50 was > 100 µM (inactive).

And the AC50 [2]?
Its AC50 is greater than 100 µM.

O=C(COC(=O)c1ccc([N+](=O)[O-])o1)NC12CC3CC(CC(C3)C1)C2 was tested. Which AC50 did it give?
The AC50 was > 100 µM (inactive).

Which results are given for CCCc1nc2oc3c(NCCCN(C)C)ncnc3c2c2c1CCCC2?
AC50: > 100 µM (inactive); AC50 [2]: > 100 µM

What does the source list for O=c1[nH]c2cc([N+](=O)[O-])ccc2c2ccccc12?
AC50: > 100 µM (inactive); AC50 [2]: > 100 µM; AC50 [1]: > 100 µM

With c1ccc(CSCc2ccccc2)cc1 as the molecule, how does the AC50 [1] read?
Its AC50 is greater than 100 µM.

How did the AC50 turn out when CCOc1ccc2oc(-c3ccccc3)c(C(=O)N(C)C)c2c1 was run?
Its AC50 is > 100 µM (inactive).

And the AC50 [2]?
The AC50 was greater than 100 µM.

Which AC50 does the source give for O=C1OCCC1Sc1nc2ccccc2c(=O)n1Cc1ccccc1 (stereo not drawn) here?
The AC50 was > 100 µM (inactive).

With O=C1c2ccccc2C(c2nnnn2Cc2ccccc2)N1Cc1cccc(F)c1 (stereo not drawn) as the molecule, how does the AC50 [2] read?
The AC50 was greater than 100 µM.

What does the source list for CC1(c2ccc3ccccc3c2)NC(=O)N(CC(=O)N2CCN(c3ccccc3O)CC2)C1=O (stereo not drawn)?
AC50: > 100 µM (inactive); AC50 [2]: > 100 µM

How did the AC50 [2] turn out when COc1ccc(OC)c(-c2nn(-c3ccccc3)cc2C(=O)N2CCc3ccccc3C2)c1 was run?
Its AC50 is greater than 100 µM.

How did the AC50 turn out when O=C(Nc1cscc1S(=O)(=O)c1ccccc1)c1ccccc1Cl was run?
The AC50 was > 100 µM (inactive).

For CN(CC(=O)Nc1ccc(F)cc1)C(=O)COc1ccc([N+](=O)[O-])cc1Cl, which AC50 is on record?
Its AC50 is > 100 µM (inactive).

And the AC50 [2]?
The AC50 was greater than 100 µM.

COc1ccccc1OCC(=O)Nc1ccc(S(=O)(=O)N2CCCCCC2)cc1 was tested. Which AC50 did it give?
The AC50 was > 100 µM (inactive).

What about the AC50 [2] of the same molecule?
The AC50 was greater than 100 µM.

For Cc1ccc(S(=O)(=O)N2CC(=O)Nc3ccccc32)cc1C, which AC50 is on record?
The AC50 was > 100 µM (inactive).

And the AC50 [2]?
Its AC50 is greater than 100 µM.

What does the source list for COC(=O)c1ccc(CN2CCCC(CO)(Cc3ccccc3F)C2)cc1 (stereo not drawn)?
AC50: > 100 µM (inactive); AC50 [2]: > 100 µM

With Cc1ccccc1-n1nnnc1SCCCC(=O)c1ccc(F)cc1 as the molecule, how does the AC50 [1] read?
Its AC50 is greater than 100 µM.

With Cc1ccn2cc(-c3cccc(NC(=O)c4cccs4)c3)nc2c1 as the molecule, how does the AC50 read?
Its AC50 is > 100 µM (inactive).

What about the AC50 [2] of the same molecule?
Its AC50 is greater than 100 µM.

How did the AC50 turn out when O=C(CN1CCN(S(=O)(=O)c2ccc(Cl)cc2)CC1)Nc1ccc2c(c1)CCC2 was run?
The AC50 was > 100 µM (inactive).

Which AC50 does the source give for CCOc1ccc2nc(SCC(=O)Nc3nonc3C)[nH]c2c1 here?
The AC50 was > 100 µM (inactive).

How did the AC50 [2] turn out when O=C(COC(=O)CNC(=O)c1ccc(F)cc1)Nc1cccc(S(=O)(=O)N2CCCC2)c1 was run?
Its AC50 is greater than 100 µM.

Which AC50 does the source give for O=c1[nH]c(C2CCCN(S(=O)(=O)c3ccccc3Cl)C2)nc2c1nnn2Cc1ccc2c(c1)OCCO2 (stereo not drawn) here?
Its AC50 is > 100 µM (inactive).

Which AC50 does the source give for COc1ccc(-n2ccnc2SCC(=O)NCc2ccccc2)c(OC)c1 here?
Its AC50 is > 100 µM (inactive).

What about the AC50 [2] of the same molecule?
Its AC50 is greater than 100 µM.

How did the AC50 turn out when CC(C)(C)C1CCC(C(=O)OCC(=O)N2CCN(C(=O)c3ccco3)CC2)CC1 (stereo not drawn) was run?
The AC50 was > 100 µM (inactive).

What does the source list for O=C(Nc1cccc(Cl)c1)N1C[C@@H]2[C@H](c3ccccc31)[C@H](CO)N2Cc1ccncc1?
AC50: > 100 µM (inactive); AC50 [2]: > 100 µM

CCc1ccc(OCC(=O)NCc2ccco2)c(Br)c1 was tested. Which AC50 did it give?
Its AC50 is > 100 µM (inactive).

Which AC50 does the source give for NC(=O)c1ccsc1NC(=O)COC(=O)CSc1ccc(Cl)cc1 here?
The AC50 was > 100 µM (inactive).

And the AC50 [2]?
The AC50 was greater than 100 µM.

How did the AC50 turn out when N#Cc1cccc(-c2ccc3c(c2)[C@H]2[C@H](CCN2C(=O)c2ccccc2F)[C@H](CO)N3)c1 was run?
The AC50 was > 100 µM (inactive).

With Cc1cc(NC(=O)CCCn2cc([N+](=O)[O-])cn2)n(Cc2ccc(F)cc2)n1 as the molecule, how does the AC50 read?
The AC50 was > 100 µM (inactive).

What about the AC50 [2] of the same molecule?
Its AC50 is greater than 100 µM.
